Measurements reported in patent US20050239654A1, “Synergistically acting herbicidal mixtures” (priority 2002, published 2005).

Legend:
Assay in all cases: Herbicidal action, post-emergence treatment, greenhouse
Type in all cases: in vivo
Amaranthus retroflexus = test system: Amaranthus retroflexus
From the text: (§1) The mixtures according to the invention were applied pre- or post-emergence (foliar treatment). The herbicidal compounds of component B and, if desired, of component C were applied in the formulation in which they are present as commercially available product.
(§2) The herbicidally active compounds of components A), B) and, if desired, C) were applied in succession or jointly, in the latter case in some cases as a tank mix and in some cases as a ready-mix, in the form of emulsions, aqueous solutions or suspensions, the vehicle being water (300-400 l/ha). In the case of the field trials, application was effected with the aid of a mobile plot sprayer.
(§3) The test period extended over 3 to 8 weeks, and the stands were also observed at later points in time.
(§4) Damage by the herbicidal compositions was evaluated with reference to a scale of 0% to 100 in comparison with untreated control plots. 0 means no damage and 100 means complete destruction of the plants.
(§5) In these examples, the value E at which only an additive effect of the individual active ingredients is to be expected was calculated by the method of S. R. Colby (Calculating synergistic and antagonistic responses of herbicide combinations, Weeds 15, 20 pp (1967)).
(§6) This was done using the formula [formula] where • X=Percentage of the herbicidal action of X at an application rate of x; • Y=Percentage of the herbicidal action of Y at an application rate of Y; • E=expected herbicidal action of X+Y at rates of application x+y (in %); or the formula [formula] where • X=Percentage of the herbicidal action of X at an application rate of x; • Y=Percentage of the herbicidal action of Y at an application rate of y; • Z=Percentage of the herbicidal action of Z at an application rate of z; • E=expected herbicidal action of X+Y+Z at rates of application x+y+z (in %)
(§7) If the value observed exceeds the value E calculated in accordance with Colby's formula, then synergism is present.

Commelina benghalensis = conditions: Table 4, 3.91 g/ha ai
From the text: as §1, §2, §3, §4, §5, §6, §7

Avena fatua = test system: Avena fatua
From the text: as §1, §2, §3, §4, §5, §6, §7

Abutilon theophrasti = test system: Abutilon theophrasti
From the text: as §1, §2, §3, §4, §5, §6, §7

Galium aparine = test system: Galium aparine
From the text: as §1, §2, §3, §4, §5, §6, §7

Brachiaria plantaginea = test system: Brachiaria plantaginea
From the text: as §1, §2, §3, §4, §5, §6, §7

Pharbitis purpurea = conditions: Table 12, 62.5 g/ha ai
From the text: as §1, §2, §3, §4, §5, §6, §7

Echinochloa crus-galli = test system: Echinochloa crus-galli
From the text: as §1, §2, §3, §4, §5, §6, §7

Polygonum persicaria = test system: Polygonum persicaria
From the text: as §1, §2, §3, §4, §5, §6, §7

Cc1c(C(=O)c2cnn(C)c2O)ccc(S(C)(=O)=O)c1C1=NOCC1 [Ia.29, 4-[2-methyl-3-(4,5-dihydroisoxazol-3-yl)-4-methylsulfonyl-benzoyl]-1-methyl-5-hydroxy-1H-pyrazole] was tested, and the “Amaranthus retroflexus Damage” value (Amaranthus retroflexus; Table 5, 0.98 g/ha ai) was 60%, the “Amaranthus retroflexus Damage” value (Amaranthus retroflexus; Table 7, 0.98 g/ha ai) was 60% and the “Commelina benghalensis Damage” value (Commelina benghalensis) was 50%. For the same compound, the “Avena fatua Damage” value (Avena fatua; Table 5, 0.98 g/ha ai) was 0%, the “Avena fatua Damage” value (Avena fatua; Table 6, 1.95 g/ha ai) was 10% and the “Abutilon theophrasti Damage” value (Abutilon theophrasti; Table 3, 0.98 g/ha ai) was 30%. For the same compound, the “Abutilon theophrasti Damage” value (Abutilon theophrasti; Table 9, 7.81 g/ha ai) was 85%, the “Galium aparine Damage” value (Galium aparine; Table 7, 0.98 g/ha ai) was 20% and the “Galium aparine Damage” value (Galium aparine; Table 8, 1.95 g/ha ai) was 30%.
For CCNc1nc(Cl)nc(NC(C)C)n1 [atrazine], the “Amaranthus retroflexus Damage” value (Amaranthus retroflexus; Table 7, 15.6 g/ha ai) was 40%, the “Brachiaria plantaginea Damage” value (Brachiaria plantaginea; Table 10, 125 g/ha ai) was 25% and the “Brachiaria plantaginea Damage” value (Brachiaria plantaginea; Table 16, 62.5 g/ha ai) was 20%. For the same compound, the “Pharbitis purpurea Damage” value (Pharbitis purpurea) was 80%, the “Echinochloa crus-galli Damage” value (Echinochloa crus-galli; Table 10, 125 g/ha ai) was 30% and the “Echinochloa crus-galli Damage” value (Echinochloa crus-galli; Table 12, 62.5 g/ha ai) was 20%. The “Echinochloa crus-galli Damage” value (Echinochloa crus-galli; Table 14, 125 g/ha ai) was 30%, the “Echinochloa crus-galli Damage” value (Echinochloa crus-galli; Table 16, 62.5 g/ha ai) was 20% and the “Polygonum persicaria Damage” value (Polygonum persicaria; Table 11, 125 g/ha ai) was 60%. The “Polygonum persicaria Damage” value (Polygonum persicaria; Table 13, 62.5 g/ha ai) was 40%, the “Polygonum persicaria Damage” value (Polygonum persicaria; Table 17, 62.5 g/ha ai) was 40% and the “Abutilon theophrasti Damage” value (Abutilon theophrasti; Table 9, 125 g/ha ai) was 30%. The “Abutilon theophrasti Damage” value (Abutilon theophrasti; Table 14, 125 g/ha ai) was 30%, the “Galium aparine Damage” value (Galium aparine; Table 7, 15.6 g/ha ai) was 0% and the “Galium aparine Damage” value (Galium aparine; Table 8, 31.25 g/ha ai) was 20%. The “Galium aparine Damage” value (Galium aparine; Table 11, 125 g/ha ai) was 60% and the “Galium aparine Damage” value (Galium aparine; Table 15, 125 g/ha ai) was 60%.
